{"source": "the supplement of paper PMC13207355", "details_in_all_cases": "exposure time: 72 h", "key": {"E13 [1]": {"tested_on": "E13 (patient-derived glioblastoma stem cells of classical subtype)", "experiment": "surviving fraction (nuclei count normalised to DMSO); higher = more cells surviving (less toxic)"}, "E21 [2]": {"tested_on": "E21 (patient-derived glioblastoma stem cells of mesenchymal subtype)", "experiment": "surviving fraction (nuclei count normalised to DMSO); higher = more cells surviving (less toxic)"}, "E28 [3]": {"tested_on": "E28 (patient-derived glioblastoma stem cells of classical subtype)", "experiment": "surviving fraction (nuclei count normalised to DMSO); higher = more cells surviving (less toxic)"}, "E31 [4]": {"tested_on": "E31 (patient-derived glioblastoma stem cells of proneural subtype)", "experiment": "surviving fraction (nuclei count normalised to DMSO); higher = more cells surviving (less toxic)"}, "E34 [5]": {"tested_on": "E34 (patient-derived glioblastoma stem cells of proneural subtype)", "experiment": "surviving fraction (nuclei count normalised to DMSO); higher = more cells surviving (less toxic)"}, "E57 [6]": {"tested_on": "E57 (patient-derived glioblastoma stem cells of mesenchymal subtype)", "experiment": "surviving fraction (nuclei count normalised to DMSO); higher = more cells surviving (less toxic)"}, "FT3469 [7]": {"tested_on": "FT3469 (normal neural stem cell line)", "experiment": "surviving fraction (nuclei count normalised to DMSO); higher = more cells surviving (less toxic)"}, "E13 [8]": {"tested_on": "E13", "experiment": "phenotypic distance (Euclidean, principal components) from DMSO controls (arbitrary units); higher = stronger morphological change"}, "E21 [9]": {"tested_on": "E21", "experiment": "phenotypic distance (Euclidean, principal components) from DMSO controls (arbitrary units); higher = stronger morphological change"}, "E28 [10]": {"tested_on": "E28", "experiment": "phenotypic distance (Euclidean, principal components) from DMSO controls (arbitrary units); higher = stronger morphological change"}, "E31 [11]": {"tested_on": "E31", "experiment": "phenotypic distance (Euclidean, principal components) from DMSO controls (arbitrary units); higher = stronger morphological change"}, "E34 [12]": {"tested_on": "E34", "experiment": "phenotypic distance (Euclidean, principal components) from DMSO controls (arbitrary units); higher = stronger morphological change"}, "E57 [13]": {"tested_on": "E57", "experiment": "phenotypic distance (Euclidean, principal components) from DMSO controls (arbitrary units); higher = stronger morphological change"}, "FT3469 [14]": {"tested_on": "FT3469", "experiment": "phenotypic distance (Euclidean, principal components) from DMSO controls (arbitrary units); higher = stronger morphological change"}}}
{"smiles": "N=C(NCCCCCCNC(=N)NC(=N)Nc1ccc(Cl)cc1)NC(=N)Nc1ccc(Cl)cc1", "note": "[Chlorhexidine]", "values": [{"measurement": "surviving fraction", "setting": "E13 [1]; 4.1 nM", "result": 1.03}, {"measurement": "surviving fraction", "setting": "E13 [1]; 12.3 nM", "result": 1.05}, {"measurement": "surviving fraction", "setting": "E13 [1]; 37 nM", "result": 0.948}, {"measurement": "surviving fraction", "setting": "E13 [1]; 111.1 nM", "result": 1.01}, {"measurement": "surviving fraction", "setting": "E13 [1]; 333.3 nM", "result": 0.969}, {"measurement": "surviving fraction", "setting": "E13 [1]; 1000 nM", "result": 0.943}, {"measurement": "surviving fraction", "setting": "E13 [1]; 3000 nM", "result": 0.409}, {"measurement": "surviving fraction", "setting": "E21 [2]; 4.1 nM", "result": 0.973}, {"measurement": "surviving fraction", "setting": "E21 [2]; 12.3 nM", "result": 1.01}, {"measurement": "surviving fraction", "setting": "E21 [2]; 37 nM", "result": 0.964}, {"measurement": "surviving fraction", "setting": "E21 [2]; 111.1 nM", "result": 0.946}, {"measurement": "surviving fraction", "setting": "E21 [2]; 333.3 nM", "result": 0.941}, {"measurement": "surviving fraction", "setting": "E21 [2]; 1000 nM", "result": 0.899}, {"measurement": "surviving fraction", "setting": "E21 [2]; 3000 nM", "result": 0.259}, {"measurement": "surviving fraction", "setting": "E28 [3]; 4.1 nM", "result": 1.05}, {"measurement": "surviving fraction", "setting": "E28 [3]; 12.3 nM", "result": 1.13}, {"measurement": "surviving fraction", "setting": "E28 [3]; 37 nM", "result": 1.1}, {"measurement": "surviving fraction", "setting": "E28 [3]; 111.1 nM", "result": 1.16}, {"measurement": "surviving fraction", "setting": "E28 [3]; 333.3 nM", "result": 1.11}, {"measurement": "surviving fraction", "setting": "E28 [3]; 1000 nM", "result": 0.694}, {"measurement": "surviving fraction", "setting": "E28 [3]; 3000 nM", "result": 0.289}, {"measurement": "surviving fraction", "setting": "E31 [4]; 4.1 nM", "result": 0.921}, {"measurement": "surviving fraction", "setting": "E31 [4]; 12.3 nM", "result": 0.969}, {"measurement": "surviving fraction", "setting": "E31 [4]; 37 nM", "result": 1.07}, {"measurement": "surviving fraction", "setting": "E31 [4]; 111.1 nM", "result": 1.04}, {"measurement": "surviving fraction", "setting": "E31 [4]; 333.3 nM", "result": 0.889}, {"measurement": "surviving fraction", "setting": "E31 [4]; 1000 nM", "result": 0.765}, {"measurement": "surviving fraction", "setting": "E31 [4]; 3000 nM", "result": 0.401}, {"measurement": "surviving fraction", "setting": "E34 [5]; 4.1 nM", "result": 0.914}, {"measurement": "surviving fraction", "setting": "E34 [5]; 12.3 nM", "result": 0.993}, {"measurement": "surviving fraction", "setting": "E34 [5]; 37 nM", "result": 0.955}, {"measurement": "surviving fraction", "setting": "E34 [5]; 111.1 nM", "result": 0.752}, {"measurement": "surviving fraction", "setting": "E34 [5]; 333.3 nM", "result": 1.03}, {"measurement": "surviving fraction", "setting": "E34 [5]; 1000 nM", "result": 0.892}, {"measurement": "surviving fraction", "setting": "E34 [5]; 3000 nM", "result": 0.659}, {"measurement": "surviving fraction", "setting": "E57 [6]; 4.1 nM", "result": 0.972}, {"measurement": "surviving fraction", "setting": "E57 [6]; 12.3 nM", "result": 1.03}, {"measurement": "surviving fraction", "setting": "E57 [6]; 37 nM", "result": 0.962}, {"measurement": "surviving fraction", "setting": "E57 [6]; 111.1 nM", "result": 1.03}, {"measurement": "surviving fraction", "setting": "E57 [6]; 333.3 nM", "result": 0.967}, {"measurement": "surviving fraction", "setting": "E57 [6]; 1000 nM", "result": 0.838}, {"measurement": "surviving fraction", "setting": "E57 [6]; 3000 nM", "result": 0.307}, {"measurement": "surviving fraction", "setting": "FT3469 [7]; 4.1 nM", "result": 1.05}, {"measurement": "surviving fraction", "setting": "FT3469 [7]; 12.3 nM", "result": 0.955}, {"measurement": "surviving fraction", "setting": "FT3469 [7]; 37 nM", "result": 1.1}, {"measurement": "surviving fraction", "setting": "FT3469 [7]; 111.1 nM", "result": 0.981}, {"measurement": "surviving fraction", "setting": "FT3469 [7]; 333.3 nM", "result": 0.883}, {"measurement": "surviving fraction", "setting": "FT3469 [7]; 1000 nM", "result": 0.806}, {"measurement": "surviving fraction", "setting": "FT3469 [7]; 3000 nM", "result": 0.537}, {"measurement": "phenotypic distance", "setting": "E13 [8]; 4.1 nM", "result": 0.429}, {"measurement": "phenotypic distance", "setting": "E13 [8]; 12.3 nM", "result": 1.39}, {"measurement": "phenotypic distance", "setting": "E13 [8]; 37 nM", "result": 0.262}, {"measurement": "phenotypic distance", "setting": "E13 [8]; 111.1 nM", "result": 2.5}, {"measurement": "phenotypic distance", "setting": "E13 [8]; 333.3 nM", "result": 0.491}, {"measurement": "phenotypic distance", "setting": "E13 [8]; 1000 nM", "result": 0.464}, {"measurement": "phenotypic distance", "setting": "E13 [8]; 3000 nM", "result": 3.49}, {"measurement": "phenotypic distance", "setting": "E21 [9]; 4.1 nM", "result": 0.562}, {"measurement": "phenotypic distance", "setting": "E21 [9]; 12.3 nM", "result": 0.828}, {"measurement": "phenotypic distance", "setting": "E21 [9]; 37 nM", "result": 0.696}, {"measurement": "phenotypic distance", "setting": "E21 [9]; 111.1 nM", "result": 0.95}, {"measurement": "phenotypic distance", "setting": "E21 [9]; 333.3 nM", "result": 0.783}, {"measurement": "phenotypic distance", "setting": "E21 [9]; 1000 nM", "result": 0.943}, {"measurement": "phenotypic distance", "setting": "E21 [9]; 3000 nM", "result": 6.35}, {"measurement": "phenotypic distance", "setting": "E28 [10]; 4.1 nM", "result": 0.971}, {"measurement": "phenotypic distance", "setting": "E28 [10]; 12.3 nM", "result": 0.644}, {"measurement": "phenotypic distance", "setting": "E28 [10]; 37 nM", "result": 0.865}, {"measurement": "phenotypic distance", "setting": "E28 [10]; 111.1 nM", "result": 0.807}, {"measurement": "phenotypic distance", "setting": "E28 [10]; 333.3 nM", "result": 0.749}, {"measurement": "phenotypic distance", "setting": "E28 [10]; 1000 nM", "result": 1.41}, {"measurement": "phenotypic distance", "setting": "E28 [10]; 3000 nM", "result": 3.14}, {"measurement": "phenotypic distance", "setting": "E31 [11]; 4.1 nM", "result": 0.524}, {"measurement": "phenotypic distance", "setting": "E31 [11]; 12.3 nM", "result": 0.525}, {"measurement": "phenotypic distance", "setting": "E31 [11]; 37 nM", "result": 0.809}, {"measurement": "phenotypic distance", "setting": "E31 [11]; 111.1 nM", "result": 0.944}, {"measurement": "phenotypic distance", "setting": "E31 [11]; 333.3 nM", "result": 1.22}, {"measurement": "phenotypic distance", "setting": "E31 [11]; 1000 nM", "result": 2.29}, {"measurement": "phenotypic distance", "setting": "E31 [11]; 3000 nM", "result": 2.76}, {"measurement": "phenotypic distance", "setting": "E34 [12]; 4.1 nM", "result": 0.526}, {"measurement": "phenotypic distance", "setting": "E34 [12]; 12.3 nM", "result": 0.799}, {"measurement": "phenotypic distance", "setting": "E34 [12]; 37 nM", "result": 0.756}, {"measurement": "phenotypic distance", "setting": "E34 [12]; 111.1 nM", "result": 0.826}, {"measurement": "phenotypic distance", "setting": "E34 [12]; 333.3 nM", "result": 0.445}, {"measurement": "phenotypic distance", "setting": "E34 [12]; 1000 nM", "result": 0.747}, {"measurement": "phenotypic distance", "setting": "E34 [12]; 3000 nM", "result": 3.01}, {"measurement": "phenotypic distance", "setting": "E57 [13]; 4.1 nM", "result": 0.332}, {"measurement": "phenotypic distance", "setting": "E57 [13]; 12.3 nM", "result": 0.353}, {"measurement": "phenotypic distance", "setting": "E57 [13]; 37 nM", "result": 0.497}, {"measurement": "phenotypic distance", "setting": "E57 [13]; 111.1 nM", "result": 0.85}, {"measurement": "phenotypic distance", "setting": "E57 [13]; 333.3 nM", "result": 0.64}, {"measurement": "phenotypic distance", "setting": "E57 [13]; 1000 nM", "result": 1.98}, {"measurement": "phenotypic distance", "setting": "E57 [13]; 3000 nM", "result": 4.85}, {"measurement": "phenotypic distance", "setting": "FT3469 [14]; 4.1 nM", "result": 1.53}, {"measurement": "phenotypic distance", "setting": "FT3469 [14]; 12.3 nM", "result": 0.951}, {"measurement": "phenotypic distance", "setting": "FT3469 [14]; 37 nM", "result": 0.654}, {"measurement": "phenotypic distance", "setting": "FT3469 [14]; 111.1 nM", "result": 0.806}, {"measurement": "phenotypic distance", "setting": "FT3469 [14]; 333.3 nM", "result": 0.554}, {"measurement": "phenotypic distance", "setting": "FT3469 [14]; 1000 nM", "result": 1.03}, {"measurement": "phenotypic distance", "setting": "FT3469 [14]; 3000 nM", "result": 2.68}]}
